Experimental data taken from publication PMC10279755 (Nature Communications, 2023).
Read-outs that look alike come from different tables or passages of the source. Values belong to the molecule of their own block, whether it stands above or below them. Ends that are not written are not given here.

Experiments:
trypsin [1] = experiment: trypsin solution (0.25%) mixed with switch peptide solution in PBS; details: 37 °C, up to 24 h
[2] = system: HUVECs (cell surface laminin receptor integrin); experiment: In vitro study of biological function using fluorescent probe: rhodamine B-labeled peptide attachment to HUVECs (CTCF); assay type: cell-based, human
Method: HUVECs were plated at a density of 0.1 million cells per well in a 24-well plate with 0.5 mL complete ECGM per well and cultured for 24 h, followed by washing with 1× PBS three times and the addition of 950 μL serum-free ECGM per well. Rhodamine B labeled peptide solution (50 μL in serum-free ECGM, 1 mM) was mixed with 0.05% trypsin (5 μL). The mixed solution was then added to each well for a total volume of 1005 μL. Cells were incubated with the mixed solution for various time periods. At different time points (1 h up to 30 h), the media was removed, and cells were washed with PBS three times. Fresh PBS (500 μL) was added to the wells, and the plate was visualized by bright-field and fluorescence microscopy (Nikon Eclipse Ti−U) with TRITC filter set. The magnification was 20×. Corrected total cell fluorescence (CTCF) intensity was estimated using the equation CTCF = integrated density − (area of selected cell) × (mean fluorescence of background). A rectangular drawing/selection tool in ImageJ was used to select a desired region with fluorescence, and its integrated density and area were measured. […] Cell counts were 30 for each group from three separate wells.
The corrected total cell fluorescence (CTCF) was calculated as follows:1 2 CTCF = integrated density – (area of selected cell × mean fluorescence of background readings)
Supplementary Table 1. Statistics Data of CTCF at each timepoint measured from fluorescence images of Ac-E5G2KSYIGR-KRB with trypsin, and control peptides mentioned […]
Comparison Mean q P value […]
Group comparisons are indicated as determined by a one -way analysis of variance (ANOVA) with a Student−Newman−Keuls comparisons post hoc test. *** indicates p < 0.001, ** indicates p < 0.01, * indicates p < 0.05, and ns indicates no significance among indicated

CD29 (integrin β1) = experiment: Immunofluorescence co-localization with CD29; assay type: cell-based, human; details: HUVECs, 50 µM peptide, 24 h, fixed, confocal microscopy, done once
Method: HUVEC cells were seeded in an 8-chamber glass slide (Lab-Tek Chamber Slide) at a density of 30,000 cells per well in 0.4 mL complete ECGM media per well. After culturing for 24 h, cells were washed twice with 1× PBS. The cells were then incubated with 395 μL of serum-free ECGM media […] in the following groups: Blank (5 μL PBS), and 4 mM Ac-YIGSR-KRB (5 μL in PBS, final concentration 50 µM). After incubation for 24 h, the media was removed, and cells were washed with PBS three times. Cultured cells were then fixed in 10% formalin for 5 min, then washed three times with PBS for 5 min each. Slides were blocked for 1 h with 2% cold water fish skin gelatin (Sigma, Inc., St. Louis, MO, USA) and 0.2% triton-X100 solution. Slides were then incubated in conjugated primary antibody diluted in blocking solution overnight at room temperature, then washed with PBS five times for 10 min each. The antibody used was FITC Armenian hamster anti-mouse/rat CD29 at a 1:50 dilution (Biolegend, San Diego, CA, USA; Catalog number 102205, clone HMbeta1-1), validated by the manufacturer by immunofluorescent staining with flow cytometric analysis. Finally, slides were mounted with DAPI Fluoromount-G (SouthernBiotech, Birmingham, AL, USA). Images were then obtained using a Nikon A1 Confocal Microscope with NIS Elements Imaging Software (Melville, New York, USA).

trypsin [3] = molecular target: T1, trypsin (Sus scrofa, UniProt P00761); experiment: Trypsin cleavage of switch peptide followed by MALDI-TOF MS; assay type: biochemical
T1 construct: purchased VWR (Radnor, PA, USA)
T1 sequence (P00761 9-231): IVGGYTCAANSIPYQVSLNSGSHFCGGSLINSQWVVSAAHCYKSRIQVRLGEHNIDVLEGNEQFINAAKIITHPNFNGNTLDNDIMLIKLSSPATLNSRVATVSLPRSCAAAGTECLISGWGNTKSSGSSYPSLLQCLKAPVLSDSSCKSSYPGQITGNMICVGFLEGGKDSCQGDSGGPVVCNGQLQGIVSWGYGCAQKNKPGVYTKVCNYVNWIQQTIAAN
Method: We followed the kinetics of Lys residue cleavage by trypsin and functional peptide formation using MALDI-TOF mass spectrometry (MS). We tracked disappearance of the switch peptide peak and evolution of the intermediate or functional peptide peak (SYIGR or Ac-YIGSR; both have the same exact mass) after treatment with trypsin. […] After 3 h, the intensity of both signals was similar, and after 24 h the switch peptide signal disappeared completely, while the intermediate/functional peptide peak became dominant, indicating near-complete conversion.
Addition of the KRB unit created a new potential cleavage site for trypsin at the C-terminal side of the Arg residue (i.e., the R–KRB peptide bond). To ensure the desired response still occurred, i.e., cleavage of the K–SYIG peptide bond to remove the N-terminal Lys residue, we designed an experiment to follow the transformation of KSYIGRK as a representative peptide that contains two potential cleavage points, the desired K–SYIG peptide bond and the undesired R–K peptide bond. We treated this peptide with trypsin and followed bond cleavage at these two sites using MALDI-TOF MS. […] However, we envisioned that this undesired cleavage would not be a problem in cell studies because it would simply generate a KRB species that would be removed in washing steps.
Switch peptide solution (100 μL, 5 mg/mL in PBS) was mixed with 20 μL of a trypsin solution (0.25%) in a vial and placed at 37 °C in an incubator. Aliquots (2 μL) from each reaction solution were withdrawn at specific times, and trypsin was deactivated immediately by the addition of acetic acid (0.3 μL, 1 M in distilled water). Samples (0.8 μL) were then mixed with a matrix solution (0.8 μL, 0.02 M α-cyano-4-hydroxycinnamic acid dissolved in acetonitrile/methanol/water (1:1:1) with 0.1% formic acid) and deposited on a MALDI plate (Opti-TOF 384 Well, 123 × 81 mm). Samples were analyzed using a matrix-assisted laser desorption ionization−tandem time-of-flight mass spectrometer (4800 MALDI TOF/TOF, AB Sciex).

aminopeptidase N (APN) = experiment: In vitro aminopeptidase N (APN) activity assay with Ala-MCA in HUVECs; assay type: cell-based, human; details: 100 μM Ala-MCA in PBS, curcumin 50 µM, 24 h, fluorescence λex 360 nm, λem 460 nm
Method: HUVEC cells were plated in a 96-well plate at a density of 5000 cells per well in 200 μL complete ECGM V2 media per well. After culturing for 24 h, cells were washed with 1X PBS two times. […] The release of fluorescent product 7-amino-4-methylcoumarin in the media was monitored on the plate reader (BioTek Cytation3 imaging reader) with λex of 360 nm and peak λem of 460 nm.

HUVECs [4] = system: HUVECs; parameters: method as in earlier work; details: curcumin up to 100 µM, up to 72 h; ref Kumar et al. 1998; Do et al. 2022; Ouyang et al. 2019; Hosseini et al. 2019; Yuan et al. 2022; cited from earlier work
Text: page 17: Reviewer #3 Specific Comment 1. I have one very major concern that should be experimentally addressed.

trypsin [5] = experiment: trypsin (0.08 wt% total) in PBS buffer; details: 37 °C
HUVECs [6] = experiment: Cell viability assay (CCK-8); assay type: cell-based, human
Method: HUVECs (ATCC catalog number PCS-100-010) were plated in a 96-well plate at a density of 5000 cells per well in 200 μL complete ECGM per well. After culturing for 24 h, the media was discarded and the cells were washed with 1X PBS three times before […] serum-containing ECGM media was added. Next, varying amounts of peptide stock solution (4 mM in PBS) were diluted to […] with PBS and added to the wells to make the final peptide concentrations ranging from 10 to 200 µM. After incubation for 24 h, cells were washed three times with PBS and then treated with serum-free ECGM media (100 μL). Next, 10 μL cell counting kit 8 solution (CCK-8, Dojindo, Rockville, MD) was added to each well. After incubation for another 3 h to allow for development of the CCK8 dye, absorbance was recorded at 450 and 750 nm using a BioTek Synergy Mx plate reader (BioTek, Winooski, VT). Worked-up data (absorbance at 750 nm subtracted from absorbance at 450 nm) were graphed using GraphPad InStat, version 3 (GraphPad Software, Inc., San Diego, CA). Mean values are reported together with the standard deviation (SD) representing the combination of 3 independent experimental runs with five replicates per experiment.

[7] = switch peptide 5 mg/mL in PBS (100 μL) + 20 μL 0.25% trypsin, 37 °C

cleaved bond (trypsin [1]): Lys-Ser, 1 h
Molecule: KSYIGR, where the SYIG unit indicates a Ser residue esterified with the Ac-YIG peptide sequence (Ac = acetyl)

Molecule: Ac-E5G2KSYIGRKRB (lariat or depsi) [Ac-E5G2KSYIGR-KRB, switch peptide labeled with the fluorescent probe rhodamine B]
fluorescence signal on HUVECs after washing (in words) ([2]; with trypsin, 1 h): negligible fluorescent signal
fluorescence signal on HUVECs after washing (in words) ([2]; with trypsin, 30 h): strong signal
fluorescence signal on HUVECs after washing (in words) ([2]; without trypsin, 30 h): no fluorescence signal

Molecule: Ac-YIGSR-KRB [rhodamine B-labeled functional peptide, positive control]
fluorescence signal on HUVECs after washing (in words) ([2]; without trypsin, 30 h): strong fluorescence
co-localization of rhodamine B-labeled peptide with anti-CD29-FITC stain (CD29 (integrin β1)): colocalized with integrin β1

time after which switch peptide signal (m/z = 764) started to decrease (trypsin [3]; [7]): 1 h
time at which intensity of switch peptide and intermediate/functional peptide signals was similar (trypsin [3]; [7]): 3 h
time at which switch peptide signal disappeared completely (near-complete conversion) (trypsin [3]; [7]): 24 h
Molecule: KSYIGR (also: lariat or depsi (positions not given here)) [non-functional depsipeptide; SYIG = Ser residue esterified with Ac-YIG; trypsin removes N-terminal Lys]

trypsin cleavage at K–SYIG versus R–K peptide bond (trypsin [3]; trypsin, cleavage at either site but not both simultaneously): approximately the same rate
Molecule: Ac-KSYIGRK (also: lariat or depsi (positions not given here))

Molecule: COc1cc(/C=C/C(=O)CC(=O)/C=C/c2ccc(O)c(OC)c2)ccc1O [curcumin]
APN activity remaining with inhibitor (aminopeptidase N (APN)): ~ 25%
viability of HUVECs (HUVECs [4]): > 80%

cleaved bond (trypsin [5]): K-S and R-K
Molecule: Ac-KSYIGRK

Molecule: Ac-KYIGR-KRB [fluorescence labeled peptide with YIG on the side chain, cannot undergo a switch; negative control]
fluorescence signal on HUVECs after washing (in words) ([2]; with trypsin, 30 h): no fluorescence
fluorescence signal on HUVECs after washing (in words) ([2]; without trypsin, 30 h): no fluorescence

Molecule: Ac-YIGSR [functional cell-adhesive pentapeptide derived from the ECM protein laminin, reference compound]
cytotoxicity in cell viability studies (HUVECs [6]; HUVECs, CCK-8, peptide up to 200 µM, 24 h): no cytotoxicity

B1: trypsin: enzyme that cleaves peptide bonds on the C-terminal side of positively charged residues (protein, UniProt P00760 24-246, looked up)
Serine protease 1: IVGGYTCGANTVPYQVSLNSGYHFCGGSLINSQWVVSAAHCYKSGIQVRLGEDNINVVEGNEQFISASKSIVHPSYNSNTLNNDIMLIKLKSAASLNSRVASISLPTSCASAGTQCLISGWGNTKSSGTSYPDVLKCLKAPILSDSSCKSAYPGQITSNMFCAGYLEGGKDSCQGDSGGPVVCSGKLQGIVSWGSGCAQKNKPGVYTKVCNYVSWIKQTIASN
cytotoxicity in cell viability studies (HUVECs [6]): no cytotoxicity
